The values below come from patent publication US12673120B2, “Fluorescently-traceable amino acid derivative and preparation methods and use thereof” (priority 2020, dated 2026).

In one series the test system is mouse S180 sarcoma model. The series can be described thus: Inhibition of tumor growth in vivo (mouse S180 sarcoma model). On the set-up: species or system male ICR mice. The note with it: for Tumor growth trend in mice: FIG. 4, ZD-E-1 versus ZD-F-1; for Average tumor weight: Mean ± SD, n 10. Here is the method: The mice used in the experiment were male ICR mice of SPF grade, weighing 20 g±2 g, purchased from Beijing Vital River Laboratory Animal Technology Co., Ltd., and raised in an animal barrier of the Experimental Animal Department of Capital Medical University.
(§1) The specific method included: drugs were administered to tumor-forming mice by group for 7 consecutive days, a length of the tumor was measured every other day to calculate a tumor volume. 24 h after the last administration, the mice were weighed, anesthetized with diethyl ether, and eyeballs were removed to collect blood; the obtained whole blood was centrifuged at 1,000 rpm for 10 min, and a serum was absorbed for later use. The mice were sacrificed by neck dislocation, and the tumor mass and various organs were stripped and weighed (it was ensured that the operation was done as soon as possible and the stripping was complete and clean). The tumor inhibition rate was calculated by formula b, the results were shown in Table 2 and FIG. 2; and by calculating a viscera-weight ratio of each organ, and it was analyzed whether the test compound had obvious physiological effects on the mouse organs.

Series [1] relates to S180 (mouse ascites tumor cells). The series can be described thus: In vitro anti-tumor cell proliferation activity (MTT method), S180. It is filed as cell-based. The conditions noted are these: S180; 48 h; Mean ± SD; read-out: IC50 values of in vitro anti-cell proliferation activity. On the technique in general: Tetrazolium assays rely on reduction of a dye to a coloured formazan, in cell work by metabolically active cells.
Experimental: (§2) Tested cell lines S180 (mouse ascites tumor cells), LLC (mouse lung cancer cells), A549 (human non-small cell lung cancer cells), HCT116 (human colon cancer cells), U2Os (human osteosarcoma cells), and MCF-7 (human breast cancer cells) each were purchased from Nanjing KeyGen Biotech.
(§3) When preparing a test sample, the test compound was prepared into a sample solution with a concentration of 500 μM (with a final concentration 100 μM) by a PBS buffer containing 0.5% DMSO, which was used for preliminary screening of an anti-cell proliferation experiment in vitro.
(§4) Positive control group: doxorubicin, prepared to a required concentration with PBS buffer containing 0.5% DMSO; negative control group: a PBS buffer containing 0.5% DMSO; blank group: a PBS buffer containing 0.01% DMSO.

Series [2] relates to LLC (mouse lung cancer cells). The series can be described thus: In vitro anti-tumor cell proliferation activity (MTT method), LLC. It is filed as cell-based. The note with it: LLC; 48 h; Mean ± SD; read-out: IC50 values of in vitro anti-cell proliferation activity.
Experimental: as §2, §3, §4
The subject of series [3] is MCF-7 (human breast cancer cells). The series can be described thus: In vitro anti-tumor cell proliferation activity (MTT method), MCF-7. The class given is cell-based. The conditions noted are these: MCF-7; 48 h; Mean ± SD; read-out: IC50 values of in vitro anti-cell proliferation activity.
Experimental: as §2, §3, §4
A short description of series [4]: Viscera-weight ratio / toxicity in tumor-bearing mice. It is filed as in vivo, male ICR mice. The conditions noted are these: for Effect on liver weight (viscera-weight ratio) compared with Vehicle group / Effect on brain weight (viscera-weight ratio) compared with Vehicle group: FIG. 5; for Effect on liver weight (viscera-weight ratio) compared with Vehicle group: ZD-E-1 at high dosages (10 μmol/kg and 5 μmol/kg); for Effect on brain weight (viscera-weight ratio) compared with Vehicle group: ZD-E-1 at three dosages. Here is the method: as §1
After a preliminary study on the in vivo anti-tumor growth activity of different amino acid main compounds, ZD-A, ZD-B, ZD-E-1, and ZD-E-1 with an increased side-chain methylene unit (ZD-F-1) were selected; three dosages of 10 μmol/kg, 5 μmol/kg, and 2 μmol/kg were set to evaluate the inhibitory ability of the four compounds on tumor growth in mice. […] Afterwards, the tumor growth trend and the viscera-weight ratio of the two compounds on mice were analyzed to compare the anti-tumor growth ability and toxicity of the two compounds. The results were shown in FIG. 4 and FIG. 5: after one-way analysis of variance, * meant that compared with the Vehicle group, there was a difference, P<0.05; ** represented a significant difference compared with the Vehicle group, P<0.01.

The nature of the next series: Water solubility. The class given is physicochemical. The note with it: decides the injection route.
The subject of series [5] is U2Os (human osteosarcoma cells). The series can be described thus: In vitro anti-tumor cell proliferation activity (MTT method), U2Os. The class given is cell-based. The conditions noted are these: U2Os; 48 h; Mean ± SD; read-out: IC50 values of in vitro anti-cell proliferation activity.
Experimental: as §2, §3, §4
Series [6] concerns A549 (human non-small cell lung cancer cells). The series can be described thus: In vitro anti-tumor cell proliferation activity (MTT method), A549. It is filed as cell-based. The conditions noted are these: A549; 48 h; Mean ± SD; read-out: IC50 values of in vitro anti-cell proliferation activity.
Experimental: as §2, §3, §4
Series [7] concerns HCT116 (human colon cancer cells). The series can be described thus: In vitro anti-tumor cell proliferation activity (MTT method), HCT116. It is filed as cell-based. The note with it: HCT116; 48 h; Mean ± SD; read-out: IC50 values of in vitro anti-cell proliferation activity.
Experimental: as §2, §3, §4
Series [8] is described as follows: Nanomorphology characterization and stability (TEM, SEM, hydration particle size, Zeta potential). The class given is physicochemical. An excerpt:
The nanomorphology of compounds ZD-B and ZD-E-1 were studied by TEM and SEM, and hydration particle size and Zeta potential of the two compounds in a solution were studied by a nanometer particle size analyzer. The results were shown in FIG. 1A-H. In FIG. 1A-H, FIG. 1A was a TEM image of the compound ZD-B; FIG. 1B was a TEM image of the compound ZD-E-1; FIG. 1C was a SEM image of the compound ZD-B; FIG. 1D was a SEM image of the compound ZD-E-1; FIG. 1E was a hydration particle size change curve of the compound ZD-B in solutions at different pH values within 72 h (0.5 h, 24 h, 48 h, and 72 h); FIG. 1F was a hydration particle size change curve of the compound ZD-E-1 in solutions at different pH solutions within 72 h; FIG. 1G was a Zeta potential change curve of the compound ZD-B in solutions at different pH values within 72 h; and FIG. 1H was a Zeta potential change curve of the compound ZD-E-1 in solutions at different pH values within 72 h.

[9] abbreviates: Table 2, 10 μmol/kg, ip, 7 consecutive days.
Where [10] appears, read: three dosages 10, 5, 2 μmol/kg, iv.

For `N=C(CCl)NCCCC[C@H](Nc1ccc([N+](=O)[O-])c2nonc12)C(=O)NCc1ccccc1` [ZD-F-1, NBD-Lys(C1)-NBzl], the “Tumor growth trend in mice” value with mouse S180 sarcoma model was “roughly the same”. For the same compound, the “Tumor Inhibition Rate” value in the series on mouse S180 sarcoma model (Table 3, 2 μmol/kg, iv) is on record as 13.32%; in the series with mouse S180 sarcoma model (Table 3, 5 μmol/kg, iv) it was 30.54%; with mouse S180 sarcoma model (Table 3, 10 μmol/kg, iv), 39.99%. In addition, the Average tumor weight is listed as 1.487 ± 0.660 g with mouse S180 sarcoma model (Table 3, 2 μmol/kg, iv); 1.191 ± 0.407 g with mouse S180 sarcoma model (Table 3, 5 μmol/kg, iv); 1.029 ± 0.423 g with mouse S180 sarcoma model (Table 3, 10 μmol/kg, iv). The IC50 in series [1] was 23.7 ± 2.29 µM; in series [2], above 100 µM; in series [3], 68.7 ± 1.5 µM; in series [5], 45.7 ± 1.68 µM; in [6], above 100 µM; in series [7] it was 38.9 ± 2.05 µM. Besides, in [4], the “Effect on liver weight (viscera-weight ratio) compared with Vehicle group” value was “no difference”. Further, the “Effect on brain weight (viscera-weight ratio) compared with Vehicle group” value in series [4] is listed as “no difference”. Also, the Water solubility entry in the series “Water solubility” is “had no such concerns”.

Regarding `N=C(CCl)NCCC[C@H](Nc1ccc([N+](=O)[O-])c2nonc12)C(=O)NCc1ccccc1` [ZD-E-1, (S)—N-benzyl-5-(2-chloroacetimido)-2-((7-nitro-2,1,3-benzoxadiazol-4-yl)amino)pentaneamide], the “Anti-tumor growth activity (in words)” value in the series on mouse S180 sarcoma model (10 μmol/kg, ip) is “most prominent activities”; in the series on mouse S180 sarcoma model (setting [10]), “desirable and stable anti-tumor growth activity”. The “Average tumor weight compared with Vehicle group (one-way analysis of variance)” value in the series with mouse S180 sarcoma model (10 μmol/kg, ip) is recorded as “significantly different from that of Vehicle group”; in the series on mouse S180 sarcoma model (setting [10]), “significant differences compared with the Vehicle group”. Moreover, the “Tumor growth trend in mice” value with mouse S180 sarcoma model was “roughly the same”. Besides, the Tumor Inhibition Rate in the series with mouse S180 sarcoma model (setting [9]) is 40.01%; in the series with mouse S180 sarcoma model (Table 3, 2 μmol/kg, iv) it was 39.23%; in the series on mouse S180 sarcoma model (Table 3, 5 μmol/kg, iv) it was 41.65%; with mouse S180 sarcoma model (Table 3, 10 μmol/kg, iv), 42.73%. Moreover, the Average tumor weight with mouse S180 sarcoma model (setting [9]) is 1.072 ± 0.386 g; in the series on mouse S180 sarcoma model (Table 3, 2 μmol/kg, iv), 1.042 ± 0.205 g; in the series on mouse S180 sarcoma model (Table 3, 5 μmol/kg, iv), 1.001 ± 0.196 g; in the series on mouse S180 sarcoma model (Table 3, 10 μmol/kg, iv), 0.982 ± 0.300 g. The “Average tumor weight compared with the YW3-56 group” value in the series with mouse S180 sarcoma model (setting [10]) is given as “no difference compared with the YW3-56 group”. Further, the IC50 in series [1] was 24.6 ± 1.72 µM; in [2] it was 26.1 ± 2.58 µM; in [3], 40.5 ± 1.91 µM; in series [5] it was 28.8 ± 1.14 µM; in series [6], 45.5 ± 0.672 µM; in series [7], 22.6 ± 1.45 µM. The “Effect on liver weight (viscera-weight ratio) compared with Vehicle group” value in [4] was “different from those in the Vehicle group”. For the same compound, in [4], the “Effect on brain weight (viscera-weight ratio) compared with Vehicle group” value is recorded as “different from those in the Vehicle group”. Besides, in [4] (mice, compared with ZD-F-1), the Toxic side effects result is “more obvious toxic side effects, causing liver failure and brain lesions in mice”. Further, the Water solubility entry in “Water solubility” is reported as “had no such concerns”. The “Nanomorphology (shape)” value in series [8] (TEM and SEM) was “shape of a ball”. The “Hydration particle size change” value in series [8] (pH=2.0, measured continuously for 72 h) was “particle size hardly changed”; in series [8] (pH=5.5, measured continuously for 72 h), “particle size increased and then decreased”. Besides, the Hydration particle size entry in series [8] (pH=7.0 versus other pH values, 72 h) is listed as “smallest particle size at pH=7.0”. Also, in series [8] (solutions at different pH values, measured continuously for 72 h), the Zeta potential change result is “neither ZD-B nor ZD-E-1 had an obvious change”.
